Data as given in the supplement of paper PMC10307832.

How the values were obtained:
Assay in all cases: relative viability (nuclei count vs DMSO), 5 days (fraction); higher = more cells survive
201T = test system: 201T
Procedure, shortened: (§1)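 Lung cancer cell lines were seeded in 1536-well plates and dosed by pin tool the next day, with either a single drug or a fixed anchor-drug dose combined with five library-drug doses (not always all listed) spaced in √10 steps. Five days later, one step fixed the cells and stained their nuclei (final 0.05% Triton X-100, 1% formaldehyde, 1 ug/ml Hoechst), and nuclei were counted on 4× images. Relative viability is the nuclei count in treated wells divided by the count in vehicle wells, and each value is the median of duplicate plates.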

BEN = test system: BEN
Procedure, shortened: as §1

CAL-12T = test system: CAL-12T
Procedure, shortened: as §1

HCC-827 = test system: HCC-827
Procedure, shortened: as §1

HOP-62 = test system: HOP-62
Procedure, shortened: as §1

LCLC-103H = test system: LCLC-103H
Procedure, shortened: as §1

LCLC-97TM1 = test system: LCLC-97TM1
Procedure, shortened: as §1

LXF-289 = test system: LXF-289
Procedure, shortened: as §1

NCI-H1395 = test system: NCI-H1395
Procedure, shortened: as §1

NCI-H1437 = test system: NCI-H1437
Procedure, shortened: as §1

NCI-H1650 = test system: NCI-H1650
Procedure, shortened: as §1

NCI-H1793 = test system: NCI-H1793
Procedure, shortened: as §1

NCI-H1944 = test system: NCI-H1944
Procedure, shortened: as §1

NCI-H2087 = test system: NCI-H2087
Procedure, shortened: as §1

NCI-H2228 = test system: NCI-H2228
Procedure, shortened: as §1

NCI-H2405 = test system: NCI-H2405
Procedure, shortened: as §1

NCI-H3122 = test system: NCI-H3122
Procedure, shortened: as §1

NCI-H322M = test system: NCI-H322M
Procedure, shortened: as §1

NCI-H647 = test system: NCI-H647
Procedure, shortened: as §1

NCI-H727 = test system: NCI-H727
Procedure, shortened: as §1

RERF-LC-KJ = test system: RERF-LC-KJ
Procedure, shortened: as §1

SK-LU-1 = test system: SK-LU-1
Procedure, shortened: as §1

NC(=O)Nc1cc(-c2cccc(F)c2)sc1C(=O)N[C@H]1CCCNC1 [AZD7762] + COc1cc2c(Oc3ccc(NC(=O)C4(C(=O)Nc5ccc(F)cc5)CC4)cc3F)ccnc2cc1OCCCN1CCOCC1 [Foretinib] (partner 0.25 µM)
relative viability (201T; first compound 0.01 µM): 1.17 | relative viability (201T; first compound 0.03162 µM): 1.26 | relative viability (201T; first compound 0.1 µM): 1.11 | relative viability (201T; first compound 0.3162 µM): 0.961 | relative viability (201T; first compound 1 µM): 0.279 | relative viability (BEN; first compound 0.01 µM): 0.714 | relative viability (BEN; first compound 0.03162 µM): 0.747 | relative viability (BEN; first compound 0.1 µM): 0.621 | relative viability (BEN; first compound 0.3162 µM): 0.507 | relative viability (BEN; first compound 1 µM): 0.596 | relative viability (CAL-12T; first compound 0.01 µM): 1.34 | relative viability (CAL-12T; first compound 0.03162 µM): 1.01 | relative viability (CAL-12T; first compound 0.1 µM): 1.13 | relative viability (CAL-12T; first compound 0.3162 µM): 0.874 | relative viability (CAL-12T; first compound 1 µM): 0.217 | relative viability (HCC-827; first compound 0.01 µM): 0.975 | relative viability (HCC-827; first compound 0.03162 µM): 1.06 | relative viability (HCC-827; first compound 0.1 µM): 1.02 | relative viability (HCC-827; first compound 0.3162 µM): 1.08 | relative viability (HCC-827; first compound 1 µM): 0.853 | relative viability (HOP-62; first compound 0.01 µM): 1.17 | relative viability (HOP-62; first compound 0.03162 µM): 1.14 | relative viability (HOP-62; first compound 0.1 µM): 1.23 | relative viability (HOP-62; first compound 0.3162 µM): 1.1 | relative viability (HOP-62; first compound 1 µM): 1.14 | relative viability (LCLC-103H; first compound 0.01 µM): 0.815 | relative viability (LCLC-103H; first compound 0.03162 µM): 0.829 | relative viability (LCLC-103H; first compound 0.1 µM): 0.82 | relative viability (LCLC-103H; first compound 0.3162 µM): 0.764 | relative viability (LCLC-103H; first compound 1 µM): 0.823 | relative viability (LCLC-97TM1; first compound 0.01 µM): 0.891 | relative viability (LCLC-97TM1; first compound 0.03162 µM): 0.88 | relative viability (LCLC-97TM1; first compound 0.1 µM): 1.02 | relative viability (LCLC-97TM1; first compound 0.3162 µM): 0.95 | relative viability (LCLC-97TM1; first compound 1 µM): 0.948 | relative viability (LXF-289; first compound 0.01 µM): 0.991 | relative viability (LXF-289; first compound 0.03162 µM): 1.05 | relative viability (LXF-289; first compound 0.1 µM): 1.05 | relative viability (LXF-289; first compound 0.3162 µM): 1.01 | relative viability (LXF-289; first compound 1 µM): 1.08 | relative viability (NCI-H1395; first compound 0.01 µM): 0.974 | relative viability (NCI-H1395; first compound 0.03162 µM): 1.08 | relative viability (NCI-H1395; first compound 0.1 µM): 1.1 | relative viability (NCI-H1395; first compound 0.3162 µM): 0.91 | relative viability (NCI-H1395; first compound 1 µM): 0.452 | relative viability (NCI-H1437; first compound 0.01 µM): 1.27 | relative viability (NCI-H1437; first compound 0.03162 µM): 1.31 | relative viability (NCI-H1437; first compound 0.1 µM): 1.24 | relative viability (NCI-H1437; first compound 0.3162 µM): 1.02 | relative viability (NCI-H1437; first compound 1 µM): 1.13 | relative viability (NCI-H1650; first compound 0.01 µM): 1.25 | relative viability (NCI-H1650; first compound 0.03162 µM): 0.931 | relative viability (NCI-H1650; first compound 0.1 µM): 1.14 | relative viability (NCI-H1650; first compound 0.3162 µM): 0.804 | relative viability (NCI-H1650; first compound 1 µM): 0.24 | relative viability (NCI-H1793; first compound 0.01 µM): 0.732 | relative viability (NCI-H1793; first compound 0.03162 µM): 0.682 | relative viability (NCI-H1793; first compound 0.1 µM): 0.595 | relative viability (NCI-H1793; first compound 0.3162 µM): 0.8 | relative viability (NCI-H1793; first compound 1 µM): 0.608 | relative viability (NCI-H1944; first compound 0.01 µM): 0.907 | relative viability (NCI-H1944; first compound 0.03162 µM): 0.975 | relative viability (NCI-H1944; first compound 0.1 µM): 1.06 | relative viability (NCI-H1944; first compound 0.3162 µM): 1.08 | relative viability (NCI-H1944; first compound 1 µM): 0.591 | relative viability (NCI-H2087; first compound 0.01 µM): 1.28 | relative viability (NCI-H2087; first compound 0.03162 µM): 1.12 | relative viability (NCI-H2087; first compound 0.1 µM): 1.34 | relative viability (NCI-H2087; first compound 0.3162 µM): 1.32 | relative viability (NCI-H2087; first compound 1 µM): 1.29 | relative viability (NCI-H2228; first compound 0.01 µM): 0.851 | relative viability (NCI-H2228; first compound 0.03162 µM): 0.788 | relative viability (NCI-H2228; first compound 0.1 µM): 0.825 | relative viability (NCI-H2228; first compound 0.3162 µM): 0.828 | relative viability (NCI-H2228; first compound 1 µM): 0.265 | relative viability (NCI-H2405; first compound 0.01 µM): 1.13 | relative viability (NCI-H2405; first compound 0.03162 µM): 1.07 | relative viability (NCI-H2405; first compound 0.1 µM): 1.05 | relative viability (NCI-H2405; first compound 0.3162 µM): 1.03 | relative viability (NCI-H2405; first compound 1 µM): 0.67 | relative viability (NCI-H3122; first compound 0.01 µM): 0.911 | relative viability (NCI-H3122; first compound 0.03162 µM): 0.905 | relative viability (NCI-H3122; first compound 0.1 µM): 0.995 | relative viability (NCI-H3122; first compound 0.3162 µM): 0.996 | relative viability (NCI-H3122; first compound 1 µM): 0.996 | relative viability (NCI-H322M; first compound 0.01 µM): 0.979 | relative viability (NCI-H322M; first compound 0.03162 µM): 1.09 | relative viability (NCI-H322M; first compound 0.1 µM): 1.09 | relative viability (NCI-H322M; first compound 0.3162 µM): 0.601 | relative viability (NCI-H322M; first compound 1 µM): 0.315 | relative viability (NCI-H647; first compound 0.01 µM): 1.23 | relative viability (NCI-H647; first compound 0.03162 µM): 1.32 | relative viability (NCI-H647; first compound 0.1 µM): 1.23 | relative viability (NCI-H647; first compound 0.3162 µM): 1.19 | relative viability (NCI-H647; first compound 1 µM): 0.326 | relative viability (NCI-H727; first compound 0.01 µM): 0.989 | relative viability (NCI-H727; first compound 0.03162 µM): 0.804 | relative viability (NCI-H727; first compound 0.1 µM): 0.728 | relative viability (NCI-H727; first compound 0.3162 µM): 0.889 | relative viability (NCI-H727; first compound 1 µM): 0.466 | relative viability (RERF-LC-KJ; first compound 0.01 µM): 0.882 | relative viability (RERF-LC-KJ; first compound 0.03162 µM): 0.891 | relative viability (RERF-LC-KJ; first compound 0.1 µM): 0.965 | relative viability (RERF-LC-KJ; first compound 0.3162 µM): 0.944 | relative viability (RERF-LC-KJ; first compound 1 µM): 0.97 | relative viability (SK-LU-1; first compound 0.01 µM): 1.01 | relative viability (SK-LU-1; first compound 0.03162 µM): 0.737 | relative viability (SK-LU-1; first compound 0.1 µM): 0.461 | relative viability (SK-LU-1; first compound 0.3162 µM): 0.185 | relative viability (SK-LU-1; first compound 1 µM): 0.145
